{
  "source": "patent US9724382B2",
  "about": "“Pharmaceutical compositions comprising cyclosporin” (PARI Pharma GmbH, priority 2005, dated 2017)",
  "key": {"[1]": {"system": "calu-3 cells (confluent monolayer)", "experiment": "Trans-epithelial electrical resistance (TEER) of calu-3 monolayer", "conditions": "for TEER [% of 0 hours]: positive control 0.1%"}, "calu-3 cells": {"system": "calu-3 cells", "conditions": "depending on the concentration; cited from earlier work"}, "[2]": {"system": "calu-3 cells (confluent monolayer)", "conditions": "for TEER after 2 h Average / TEER after 24 h Average: human"}},
  "note": "Where two headings read alike, the source gives them in different places.",
  "data": [
    {"smiles": "CCCCCCCCCCCCOS(=O)(=O)[O-].[Na+]", "note": "[SDS, sodium dodecyl sulphate]", "values": [
      {"measurement": "TEER after 2 h Average", "setting": "[1]; Conc. 0.001 %", "value": 114, "unit": "%"},
      {"measurement": "TEER after 24 h Average", "setting": "[1]; Conc. 0.001 %", "value": 107, "unit": "%"},
      {"measurement": "TEER after 2 h Average", "setting": "[1]; Conc. 0.010 %", "value": 7, "unit": "%"},
      {"measurement": "TEER after 24 h Average", "setting": "[1]; Conc. 0.010 %", "value": 2, "unit": "%"},
      {"measurement": "TEER after 2 h Average", "setting": "[1]; Conc. 0.100 %", "value": 3, "unit": "%"},
      {"measurement": "TEER after 24 h Average", "setting": "[1]; Conc. 0.100 %", "value": 2, "unit": "%"},
      {"measurement": "effect on the integrity of the calu-3 monolayer", "setting": "[1]; conclusion from TEER values", "value": "significant and largely non-reversible damage"},
      {"measurement": "TEER [% of 0 hours]", "setting": "[1]; time 0 h", "value": 20, "unit": "%"},
      {"measurement": "TEER [% of 0 hours]", "setting": "[1]; time 1 h", "value": 19, "unit": "%"},
      {"measurement": "TEER [% of 0 hours]", "setting": "[1]; time 2 h", "value": 19, "unit": "%"},
      {"measurement": "TEER [% of 0 hours]", "setting": "[1]; time 24 h", "value": 11, "unit": "%"}
    ]},
    {"smiles": "CC(O)CO", "note": "(stereo not drawn) [Propylene glycol, propylene glycol]", "values": [
      {"measurement": "effect on calu-3 cells", "setting": "calu-3 cells", "value": "kills calu-3 cells"},
      {"measurement": "effect on the integrity of the calu-3 monolayer", "setting": "[2]", "value": "significant and largely non-reversible damage"},
      {"measurement": "TEER after 2 h Average", "setting": "[2]; 0.1 %", "value": 116, "unit": "%"},
      {"measurement": "TEER after 2 h Average", "setting": "[2]; 0.5 %", "value": 120, "unit": "%"},
      {"measurement": "TEER after 2 h Average", "setting": "[2]; 5 %", "value": 36, "unit": "%"},
      {"measurement": "TEER after 2 h Average", "setting": "[2]; 10 %", "value": 14, "unit": "%"},
      {"measurement": "TEER after 24 h Average", "setting": "[2]; 0.1 %", "value": 83, "unit": "%"},
      {"measurement": "TEER after 24 h Average", "setting": "[2]; 0.5 %", "value": 83, "unit": "%"},
      {"measurement": "TEER after 24 h Average", "setting": "[2]; 5 %", "value": 75, "unit": "%"},
      {"measurement": "TEER after 24 h Average", "setting": "[2]; 10 %", "value": 43, "unit": "%"}
    ]}
  ]
}
